Measured values as given in US9320272B2, “Microbial composition” (Rohm and Haas Company, priority 2011, dated 2016).
Where “and” joins values, the source holds several entries; their conditions need not be identical. Equal values may be shown once.

Key:
[1] = test system: Escherichia coli (E. coli - ATCC #10536); experiment: Automated assessment of efficacy in surfactant base (2.85% sodium cocoyl glycinate + 1.85% sodium lauroamphoacetate, pH 10), 15 seconds exposure; format: cell-based; settings: for MBC (% w/v): in 2.85% sodium cocoyl glycinate + 1.85% sodium lauroamphoacetate solution at pH 10, E. coli, 15 seconds exposure; for Δ OD 450 nm = OD450 (time zero) − OD450 (time = 16 hours), Mean / Δ OD 590 nm OD590 (time = 16 hours) − OD590 (time zero), Mean / No. of replicates showing growth (out of 4): model surfactant solution pH 10, 15 s exposure; for Δ OD 450 nm = OD450 (time zero) − OD450 (time = 16 hours), Mean / Δ OD 590 nm OD590 (time = 16 hours) − OD590 (time zero), Mean: 4 replicates
Procedure: In these examples, the efficacy of combinations of actives were tested in a surfactant cleansing formulation comprising 2.85% sodium cocoyl glycinate and 1.85% sodium lauroamphoacetate.
This corresponds to a 50% in use dilution with water of a neat formulation containing 5.7% cocoyl glycinate and 3.7% sodium lauroamphoacetate during hand washing.
Solutions were prepared such that the concentrations of the surfactant components and test actives were 1.1× the final desired concentration in order to allow for dilution with the bacterial inoculum in the test. The solutions were manually adjusted to pH 10.0 by dropwise addition of sodium hydroxide solution, as measured with a pH meter at ambient temperature.
The efficacy of the combinations of the present invention was determined against Escherichia coli (E. coli—ATCC #10536), at a concentration of approximately 1×10^8 bacteria per mL.
Tests were conducted using standard microliter plate assays using an automated liquid handling system. 270 μl of the surfactant test solution was pipetted into each well of the microtitre plate and 30 μl of the bacterial suspension was then added. After exactly 15 seconds of bacterial exposure, a 30 μl volume of bacterial cells was withdrawn and transferred to 270 μl of D/E quench solution. After 5 minutes in the D/E quench, the optical density (OD) was measured for each plate in turn at two specific wavelengths (450 nm and 590 nm). These provide a dual check of antimicrobial activity, as the OD450 reading is specific for the yellow colour of D/E quench when bacterial growth is observed, whereas OD590 is specific for the initial purple colour of the D/E quench which is retained if no bacterial growth is observed. After the time zero OD measurements, plates were then incubated at 37° C. overnight (16 hours) before repeating the OD measurements. Delta CD values were calculated by subtracting […] the initial value at time zero. Bacterial growth is observed as an increase in OD450 and a decrease in ΔOD590. To identify antibacterially efficacious systems (those preventing appreciable bacterial growth after incubation), the following threshold changes in OD readings have been adopted: if (1), OD450 increases by less than 0.2 absorbance unit on incubation and (2), OD590 decreases by less than 0.35 unit on incubation. Conversely, where OD450 increases by more than 0.2 AU and OD590 decreases by more than 0.35 unit after incubation, corresponding to a colour shift from purple to yellow, the test system allows bacterial growth and is not deemed efficacious. Four replicate measurements in the same plate have been made for each test system. The number of replicate wells showing either bacterial growth or no growth is also readily assessed by eye by following the colour change.
Dose responses for individual components and binary mixtures of actives at a fixed concentration ratio were generated by sequential dilution of liquors with further surfactant solution to obtain a series of endpoints.
In some selected cases, the combinations were also tested at the weight ratio 1.1.

[2] = test system: Escherichia coli (E. coli - ATCC #10536); experiment: Synergy test: high resolution MBC microtiter plate assay in phosphate buffer containing 35% dipropylene glycol, 15 seconds contact; format: cell-based; settings: for QB: concentration of second component (B) acting alone which produced an end point (MBC of Compound B); Qb with Qa = 0 / QA: concentration of first component (A) acting alone which produced an end point (MBC of Compound A); Qa with Qb = 0: E. coli 10536, complete kill in 15 seconds, phosphate buffer with 35% DPG; for SI (Synergy Index = Qa/QA + Qb/QB): E. coli 10536, less than one = synergy, one = additivity, greater than one = antagonism
From the text: One measure of synergy is the industrially accepted method described by Kull, F. C.; Eisman, P. C.; Sylwestrowicz, M. D, and Mayer, R. L., in Applied Microbiology 9:538-541 (1961), using the ratio determined by the formula: Qa/QA+Qb/QB=Synergy Index (“SI”) wherein; QA=concentration of compound A (first component) in percent, acting alone, which produced an end point (MBC of Compound A), Qa=concentration of compound A in percent, in the mixture, which produced an end point. QB=concentration of compound B (second component) in percent, acting alone, which produced an end point (MBC of Compound B). Qb=concentration of compound B in percent, in the mixture, which produced an end point.
When the sum of Qa/QA and Qb/QB is greater than one, antagonism is indicated. […] The lower the SI, the greater is the synergy shown by that particular mixture. The minimum biocidal concentration (MBC) of a microbicide is the lowest concentration tested under a specific set of conditions that provides complete kill of the tested microorganisms.
Synergy tests were conducted using standard microliter plate assays with phosphate buffer containing 35% dipropylene glycol (DPG). In this method, a wide range of combinations of chemicals was tested by conducting high resolution. MBC assays of Component (A) in the presence of various concentrations of Component (B). High resolution MBCs were determined by adding varying amounts of microbicide to one column of a microliter plate and doing subsequent […] dilutions using an automated liquid handling system to obtain a series of closely spaced endpoints. The MBC plate was inoculated one column at a time with the test microorganism. An aliquot of the inoculated well was transferred at 15 seconds to a plate containing a neutralizing agent (EVE Neutralizing Broth), mixed and held for 5 minutes before being transferred to a growth plate containing trypticase soy broth (TSB). The TSB plate was incubated at 37° C. and read for the presence/absence of growth at 24 hours. The lowest level tested that provided complete kill (as evidenced by no growth in the microtitre plate) of the test organisms in 15 seconds is the minimum biocidal concentration (MBC).
The synergy of the combinations of the present invention was determined against a bacterium, Escherichia coli (E. coli—ATCC #10536), at a concentration of approximately 1×10^8 bacteria per mL. This microorganism is representative of natural contaminants in many consumer and industrial applications.

SMILES	MBC (% w/v) [1] [% w/v]	Δ OD 450 nm = OD450 (time zero) − OD450 (time = 16 hours), Mean ([1]; single active at 0.2% w/v)	Δ OD 590 nm OD590 (time = 16 hours) − OD590 (time zero), Mean ([1]; single active at 0.2% w/v)	SI (Synergy Index = Qa/QA + Qb/QB) [2]	QA: concentration of first component (A) acting alone which produced an end point (MBC of Compound A); Qa with Qb = 0 [2]	No. of replicates showing growth (out of 4) ([1]; single active at […] w/v)	Δ OD 590 nm OD590 (time = 16 hours) − OD590 (time zero), Mean ([1]; single active at […] w/v)	other results
C=CC(C)(O)CCC=C(C)C (racemic) [3,7-dimethylocta-1,6-dien-3-ol]	>0.5	−0.53	0.60	1.0	–	–	–	Δ OD 450 nm = OD450 (time zero) − OD450 (time = 16 hours), Mean ([1]; single active at 0.5% w/v): −0.30; Δ OD 590 nm OD590 (time = 16 hours) − OD590 (time zero), Mean ([1]; single active at 0.5% w/v): 0.50; QB: concentration of second component (B) acting alone which produced an end point (MBC of Compound B); Qb with Qa = 0 [2]: 0.5 weight %
Oc1ccccc1C1CCCC1 [2-cyclopentylphenol]	>0.2	–	–	1.00	0.2 weight % and 0.6 weight % and 0.3 weight %	–	–	–
Oc1ccccc1Cc1ccccc1 [2-hydroxydiphenylmethane]	>0.2	−0.51	0.63	1.00	0.8 weight % and 1.0 weight % and 0.6 weight %	4	0.64	No. of replicates showing growth (out of 4) ([1]; single active at 0.1% w/v): 4; Δ OD 450 nm = OD450 (time zero) − OD450 (time = 16 hours), Mean ([1]; single active at 0.1% w/v): −0.51; Δ OD 590 nm OD590 (time = 16 hours) − OD590 (time zero), Mean ([1]; single active at 0.1% w/v): 0.62; No. of replicates showing growth (out of 4) ([1]; single active at 0.2% w/v): 4; Δ OD 450 nm = OD450 (time zero) − OD450 (time = 16 hours), Mean ([1]; single active at […] w/v): −0.49
Cc1ccc(C(C)C)c(O)c1O [3-isopropyl-6-methylbenzene-1,2-diol]	–	–	–	1.00	0.8 weight % and 1.0 weight %	–	–	–
Cc1cc(O)c(C(C)C)cc1Cl [4-chloro-2-isopropyl-5-methylphenol, reference compound]	>0.2	–	–	–	–	–	–	–
Cc1cc(O)cc(C)c1Cl [4-chloro-3,5-dimethylphenol]	>0.2	–	–	1.00	0.6 weight % and 0.3 weight %	–	–	–
Oc1ccc(C2CCCC2)cc1 [4-cyclopentylphenol]	>0.2	–	–	1.00	0.2 weight %	–	–	–
Oc1ccc(Cc2ccccc2)cc1 [4-hydroxydiphenylmethane]	>0.2	−0.52	0.61	1.00	0.6 weight % and 0.5 weight %	4	0.54	No. of replicates showing growth (out of 4) ([1]; single active at 0.1% w/v): 4; Δ OD 450 nm = OD450 (time zero) − OD450 (time = 16 hours), Mean ([1]; single active at 0.1% w/v): −0.58; Δ OD 590 nm OD590 (time = 16 hours) − OD590 (time zero), Mean ([1]; single active at 0.1% w/v): 0.52; No. of replicates showing growth (out of 4) ([1]; single active at 0.2% w/v): 4; Δ OD 450 nm = OD450 (time zero) − OD450 (time = 16 hours), Mean ([1]; single active at […] w/v): −0.55
CC(C)(C)c1ccc(O)c(O)c1 [4-tert-butylbenzene-1,2-diol]	–	–	–	1.00	0.8 weight % and 1.0 weight %	–	–	–
Oc1cccc2c1CCCC2 [5,6,7,8-tetrahydronaphthalen-1-ol]	>0.2	–	–	1.00	0.6 weight % and 0.5 weight %	–	–	–
Oc1ccc2c(c1)CCCC2 [5,6,7,8-tetrahydronaphthalen-2-ol]	>0.2	–	–	1.00	0.6 weight % and 0.3 weight % and 0.5 weight %	4	0.30	Δ OD 450 nm = OD450 (time zero) − OD450 (time = 16 hours), Mean ([1]; single active at […] w/v): −1.59
CC(C)=CCC/C(C)=C/CO [(E)-3,7-dimethylocta-2,6-dien-1-ol]	>0.5	–	–	–	–	4	–	No. of replicates showing growth (out of 4) ([1]; single active at 0.3% w/v): 4; Δ OD 450 nm = OD450 (time zero) − OD450 (time = 16 hours), Mean ([1]; single active at 0.3% w/v): −0.51; Δ OD 590 nm OD590 (time = 16 hours) − OD590 (time zero), Mean ([1]; single active at 0.3% w/v): 0.59; No. of replicates showing growth (out of 4) ([1]; single active at 0.5% w/v): 4; Δ OD 450 nm = OD450 (time zero) − OD450 (time = 16 hours), Mean ([1]; single active at 0.5% w/v): −0.45; Δ OD 590 nm OD590 (time = 16 hours) − OD590 (time zero), Mean ([1]; single active at 0.5% w/v): 0.62; QB: concentration of second component (B) acting alone which produced an end point (MBC of Compound B); Qb with Qa = 0 [2]: 0.3 weight % and 0.2 weight %
CC(C)=CCC/C(C)=C\CO [cis-3,7-dimethyl-2,6-octadien-1-ol]	>0.5	−0.53	0.60	–	–	4	0.61	Δ OD 450 nm = OD450 (time zero) − OD450 (time = 16 hours), Mean ([1]; single active at 0.5% w/v): −0.14; Δ OD 590 nm OD590 (time = 16 hours) − OD590 (time zero), Mean ([1]; single active at 0.5% w/v): 0.40; QB: concentration of second component (B) acting alone which produced an end point (MBC of Compound B); Qb with Qa = 0 [2]: 0.5 weight % and 0.25 weight %
